Test results: the supplement of paper PMC13380429

What was measured:
Conditions in all cases: 72 h
[1] = test system: HepG2; assay: drug sensitivity score (DSS) for viability; higher = more toxic; extreme values may be limits of the assay
[2] = test system: Vero E6; assay: as above
[3] = test system: Calu-3; assay: as above
[4] = test system: Caco-2; assay: as above
[5] = test system: U2OS; assay: as above
[6] = test system: HepG2; assay: cell viability relative to DMSO; higher = less toxic
[7] = test system: Vero E6; assay: as above
[8] = test system: Calu-3; assay: as above
[9] = test system: Caco-2; assay: as above
[10] = test system: U2OS; assay: as above
[11] = test system: HepG2; assay: relative viability EC50 (midpoint between 100% and the lowest measured viability); higher = less toxic
[12] = test system: Vero E6; assay: as above
[13] = test system: Calu-3; assay: as above
[14] = test system: Caco-2; assay: as above
[15] = test system: U2OS; assay: as above

SMILES	drug sensitivity score [1]	drug sensitivity score [2]	drug sensitivity score [3]	drug sensitivity score [4]	drug sensitivity score [5]	cell viability ([6]; 1 nM)	cell viability ([6]; 10 nM)	cell viability ([6]; 100 nM)	cell viability ([6]; 1000 nM)	cell viability ([6]; 10000 nM)	cell viability ([7]; 1 nM)	cell viability ([7]; 10 nM)	cell viability ([7]; 100 nM)	cell viability ([7]; 1000 nM)	cell viability ([7]; 10000 nM)	cell viability ([8]; 1 nM)	cell viability ([8]; 10 nM)	cell viability ([8]; 100 nM)	cell viability ([8]; 1000 nM)	cell viability ([8]; 10000 nM)	cell viability ([9]; 1 nM)	cell viability ([9]; 10 nM)	cell viability ([9]; 100 nM)	cell viability ([9]; 1000 nM)	cell viability ([9]; 10000 nM)	cell viability ([10]; 1 nM)	cell viability ([10]; 10 nM)	cell viability ([10]; 100 nM)	cell viability ([10]; 1000 nM)	cell viability ([10]; 10000 nM)	relative viability EC50 [11]	relative viability EC50 [12]	relative viability EC50 [13]	relative viability EC50 [14]	relative viability EC50 [15]
NC(=O)CN1CCCC1=O [piracetam]	0	0	0	0	0	92.1%	103%	98%	98.5%	105%	93.3%	98.3%	91.7%	93.3%	92%	110%	97.7%	112%	109%	97.9%	102%	91.2%	98.7%	96.6%	102%	100%	102%	100%	97.7%	102%	> 10 µM	> 10 µM	> 10 µM	> 10 µM	> 10 µM
CCOC(=O)[C@H](CCc1ccccc1)N[C@H]1CCc2ccccc2N(CC(=O)O)C1=O [benazepril]	0	0	0	0	0	112%	101%	95.4%	104%	96.9%	103%	104%	96.1%	109%	99.2%	94.9%	97.5%	111%	97.8%	108%	99.1%	90.8%	106%	101%	94.6%	99.1%	94%	102%	93.8%	93.4%	> 10 µM	> 10 µM	> 10 µM	> 10 µM	> 10 µM
O=C(CCN1CCN(C(=O)OCc2cc(Cl)cc(Cl)c2)CC1)c1ccc2[nH]c(=O)oc2c1 [PF-8380]	0	0	0	0	0	99.6%	96.3%	93.4%	105%	97.3%	106%	110%	104%	103%	92.7%	97.5%	101%	94.5%	99.5%	113%	94.8%	101%	91.2%	98.1%	94.9%	98.5%	101%	97.9%	95.6%	101%	> 10 µM	> 10 µM	> 10 µM	> 10 µM	> 10 µM
